Measurements: ChEMBL document CHEMBL4483862, “Open-source discovery of chemical leads for next-generation chemoprotective antimalarials” (2018)

System: Plasmodium berghei
Test: Luciferase/luciferin-expressing antifolate-resistant parasites were used to infect a culture of HepG2 cells that were pre-incubated with compounds. Infected hepatocytes emit light due to the luciferase reaction. Assay results are presented as the percent inhibition of light emission compared to control. […]
Format: functional
Settings: sporozoite; for IC90: read-out: LUCIFERASE INFECTION ASSAY - IC90
[1] = read-out: LUCIFERASE INFECTION ASSAY - IC50

## CCCc1nc(C)c(C(=O)Nc2nccn2Cc2ccccc2)s1
[1]
  IC50: > 10 µM
  IC90: > 10 µM

## CN(C)c1nc(N)nc(/C(C#N)=C/c2ccc(N(c3ccccc3)c3ccccc3)cc2)n1
PBLUC_HILL_SLOPE 2.12, PBLUC_R_SQUARED 0.0159, read-out: LUCIFERASE INFECTION ASSAY - IC50
  IC50: 7.93 µM
  IC90: > 10 µM

## CNC(=O)c1cccc(NC(=O)c2cc(Cl)c[nH]2)c1
[1]
  IC50: > 10 µM
  IC90: > 10 µM

## COc1ccc(-n2c(=O)c3ccccc3n3c(SCC(N)=O)nnc23)cc1
[1]
  IC50: > 10 µM
  IC90: > 10 µM

## O=C(O)c1c(CN2CCN(c3ccccc3)CC2)c(O)c2ccccc2c1O
HEPG2TOX_HILL_SLOPE 4.36, HEPG2TOX_R_SQUARED 0.83, PBLUC_HILL_SLOPE 4.96, PBLUC_R_SQUARED 0.0239, read-out: LUCIFERASE INFECTION ASSAY - IC50
  IC50: 5.31 µM
  IC90: 8.28 µM

## CC(=O)c1cccc(-c2ccnc3c2CC(C(=O)NCCc2ccccc2)O3)c1 (stereo not given)
HEPG2TOX_HILL_SLOPE 2.91, HEPG2TOX_R_SQUARED 0.95, PBLUC_HILL_SLOPE 2.2, PBLUC_R_SQUARED 0.478, read-out: LUCIFERASE INFECTION ASSAY - IC50
  IC50: 1.89 µM
  IC90: 5.14 µM

## CC(C)(C)c1cc(C(=O)Nc2nc(C(N)CCc3ccccc3)cs2)n(Cc2ccccc2)n1 (stereo not given)
[1]
  IC50: > 6.97 µM
  IC90: > 6.97 µM

## CN(C)C(=O)c1ccc(-c2cnc3cnc(-c4ccccc4Oc4ccccc4)cn23)cc1
PBLUC_HILL_SLOPE 8.03, PBLUC_R_SQUARED 0.291, read-out: LUCIFERASE INFECTION ASSAY - IC50
  IC50: 2.77 µM
  IC90: 3.65 µM

## CC1(C)CC(N2CCN(C(c3ccccc3)c3ccccc3)CC2)=CC(=[N+]2CCCCC2)C1
HEPG2TOX_HILL_SLOPE 2.29, HEPG2TOX_R_SQUARED 0.813, PBLUC_HILL_SLOPE 10.9, PBLUC_R_SQUARED 0.679, read-out: LUCIFERASE INFECTION ASSAY - IC50
  IC50: 1.36 µM
  IC90: 1.67 µM

## CC(=O)Nc1nc(C(=O)Nc2nc3ccccc3n2C2CCCCC2)cs1
[1]
  IC50: > 10 µM
  IC90: > 10 µM

## CCOC(=O)c1oc2ccccc2c1COC(=O)c1ccc(C)c(NC(=O)c2ccco2)c1
PBLUC_HILL_SLOPE 12.1, 4.42, PBLUC_R_SQUARED 0.718, 0.471, read-out: LUCIFERASE INFECTION ASSAY - IC50
  IC50: 6.8 µM
  IC90: 7.27 µM

## CC1CC(C)CN(C2=CC(=[N+]3CCCC3)CC(C)(C)C2)C1 (stereo not given)
HEPG2TOX_HILL_SLOPE 0.983, HEPG2TOX_R_SQUARED 0.985, PBLUC_HILL_SLOPE 2.02, PBLUC_R_SQUARED 0.664, read-out: LUCIFERASE INFECTION ASSAY - IC50
  IC50: 0.682 µM
  IC90: 2.02 µM

## O=C(Nc1ccccc1)c1cc2sccc2s1
HEPG2TOX_HILL_SLOPE 6.8, HEPG2TOX_R_SQUARED 0.21, read-out: LUCIFERASE INFECTION ASSAY - IC50
  IC50: > 12.7 µM
  IC90: > 12.7 µM

## O=C(Nc1ccc(CNC(=O)C2Cc3cc(Cl)ccc3O2)cc1)c1ccco1 (stereo not given)
[1]
  IC50: > 10 µM
  IC90: > 10 µM

## COc1ccc(-c2cnc3cnc(-c4cnn(Cc5ccccc5)c4)cn23)cc1
PBLUC_HILL_SLOPE 2.08, PBLUC_R_SQUARED 0.432, read-out: LUCIFERASE INFECTION ASSAY - IC50
  IC50: 7.68 µM
  IC90: > 8.65 µM

## COC(=O)c1noc(C)c1-c1ccnn1C(=O)Nc1cccc(Cl)c1
PBLUC_HILL_SLOPE 10.3, PBLUC_R_SQUARED 0.543, read-out: LUCIFERASE INFECTION ASSAY - IC50
  IC50: 6.84 µM
  IC90: 8.47 µM

## Nc1ncnc(N/N=C/c2ccc(C3=CCCC3)s2)c1[N+](=O)[O-]
FFLUC_HILL_SLOPE 0.804, FFLUC_R_SQUARED 0.918, PBLUC_HILL_SLOPE 0.696, PBLUC_R_SQUARED 0.659, read-out: LUCIFERASE INFECTION ASSAY - IC50
  IC50: 0.463 µM
  IC90: > 10 µM

## CCCNC(=O)c1c(NC(=O)c2cccc(C#N)c2)nc2ccc(C)cn12
HEPG2TOX_HILL_SLOPE 3.59, HEPG2TOX_R_SQUARED 0.259, PBLUC_HILL_SLOPE 11, PBLUC_R_SQUARED 0.773, read-out: LUCIFERASE INFECTION ASSAY - IC50
  IC50: 8.46 µM
  IC90: > 9.13 µM

## Nc1ncc(-c2cc(C(F)(F)F)cc(C(F)(F)F)c2)cc1-c1ccc(O)cc1
[1]
  IC50: > 8.29 µM
  IC90: > 8.29 µM

## CCN(CC)C(=O)COC(=O)c1ccc2c(c1)C(=O)N(CCC(C)C)C2=O
[1]
  IC50: > 10 µM
  IC90: > 10 µM

## N#CCS(=O)(=O)c1ccc(OC(F)(F)F)cc1
[1]
  IC50: > 12.4 µM
  IC90: > 12.4 µM

## COc1cccc(-c2cnn3ccc(Nc4ccc(OC)nc4)nc23)c1
HEPG2TOX_HILL_SLOPE 3.92, HEPG2TOX_R_SQUARED 0.974, PBLUC_HILL_SLOPE 24.4, PBLUC_R_SQUARED 0.48, read-out: LUCIFERASE INFECTION ASSAY - IC50
  IC50: 3.53 µM
  IC90: 3.86 µM

## COC(=O)C1=CC2C3C(=O)N(c4cc(Cl)cc(Cl)c4)C(=O)C3C1C1C(=O)N(c3cc(Cl)cc(Cl)c3)C(=O)C21 (stereo not given)
PBLUC_HILL_SLOPE 1.53, PBLUC_R_SQUARED 0.573, read-out: LUCIFERASE INFECTION ASSAY - IC50
  IC50: 2.18 µM
  IC90: > 5.55 µM

## Cc1sc2nc(-c3cccnc3)nc(N3CCN(C(=O)C4COc5ccccc5O4)CC3)c2c1C (stereo not given)
PBLUC_HILL_SLOPE 15.9, PBLUC_R_SQUARED 0.0253, read-out: LUCIFERASE INFECTION ASSAY - IC50
  IC50: 9.35 µM
  IC90: > 10 µM

## O=C(c1cc2c(s1)CCC2)N1C=CN(c2ccc(C(F)(F)F)cn2)C1c1nccn1-c1ccc(C(F)(F)F)cn1 (stereo not given)
FFLUC_HILL_SLOPE 2.58, FFLUC_R_SQUARED 0.668, PBLUC_HILL_SLOPE 14.8, PBLUC_R_SQUARED 0.174, read-out: LUCIFERASE INFECTION ASSAY - IC50
  IC50: 9.12 µM
  IC90: > 10 µM

## COc1cc(CNC(=O)Nc2nc3ccccc3s2)cc(OC)c1OC
HEPG2TOX_HILL_SLOPE 1.53, HEPG2TOX_R_SQUARED 0.847, PBLUC_HILL_SLOPE 0.688, PBLUC_R_SQUARED 0.648, read-out: LUCIFERASE INFECTION ASSAY - IC50
  IC50: 0.692 µM
  IC90: > 10 µM

## O=C(c1ccc(-n2cnc3ccccc3c2=O)cc1)N1CCN(S(=O)(=O)c2ccc3ccccc3c2)CC1
PBLUC_HILL_SLOPE 18.8, PBLUC_R_SQUARED 0.0296, read-out: LUCIFERASE INFECTION ASSAY - IC50
  IC50: 9.48 µM
  IC90: > 10 µM

## O=C(NC1CCCC1)c1ccc(-c2cn3c(-c4ccc(CO)cc4)cnc3cn2)cc1
PBLUC_HILL_SLOPE 20, PBLUC_R_SQUARED 0.468, read-out: LUCIFERASE INFECTION ASSAY - IC50
  IC50: 6.98 µM
  IC90: 7.79 µM

## O=C(NC1CCCc2ccccc21)c1cc(Cl)nc(Cl)c1 (stereo not given)
[1]
  IC50: > 10 µM
  IC90: > 10 µM

## COc1cc(-c2cc(-c3ccccc3F)cnc2N)ccc1O
PBLUC_HILL_SLOPE 10.3, PBLUC_R_SQUARED 0.764, read-out: LUCIFERASE INFECTION ASSAY - IC50
  IC50: 3.41 µM
  IC90: 4.23 µM

## CCc1cc2c(=O)n(NC(=S)Nc3ccc(OC)cc3)cnc2s1
[1]
  IC50: > 10 µM
  IC90: > 10 µM

## CCOC(=O)c1sc(N)c(C#N)c1CSc1nc(-c2ccccc2)cs1
HEPG2TOX_HILL_SLOPE 1.34, HEPG2TOX_R_SQUARED 0.985, PBLUC_HILL_SLOPE 11.8, PBLUC_R_SQUARED 0.536, read-out: LUCIFERASE INFECTION ASSAY - IC50
  IC50: 3.06 µM
  IC90: 3.69 µM

## O=C1N(CCCc2cccnc2)C(=O)C2(CCN(Cc3ccsc3)CC2)N1Cc1ccccc1
[1]
  IC50: > 6.95 µM
  IC90: > 6.95 µM

## CCCNC(=O)c1c(NC(=O)c2ccc(C(F)(F)F)cc2)nc2ccc(C)cn12
FFLUC_HILL_SLOPE 11.2, FFLUC_R_SQUARED 0.698, HEPG2TOX_HILL_SLOPE 0.884, HEPG2TOX_R_SQUARED 0.902, PBLUC_HILL_SLOPE 2.26, PBLUC_R_SQUARED 0.742, read-out: LUCIFERASE INFECTION ASSAY - IC50
  IC50: 0.419 µM
  IC90: 1.11 µM

## CCCNC(=O)c1c(NC(=O)c2cc(F)ccc2F)nc2ccc(C)cn12
FFLUC_HILL_SLOPE 10.5, FFLUC_R_SQUARED 0.751, HEPG2TOX_HILL_SLOPE 1.41, HEPG2TOX_R_SQUARED 0.982, PBLUC_HILL_SLOPE 15, PBLUC_R_SQUARED 0.726, read-out: LUCIFERASE INFECTION ASSAY - IC50
  IC50: 1.02 µM
  IC90: 1.18 µM

## CC(NC(=O)CN1CCCc2c(F)cc(F)cc21)c1ccco1 (stereo not given)
[1]
  IC50: > 10 µM
  IC90: > 10 µM

## Cc1ccc(O)c(-c2cc(-c3ccccc3)c3ccccc3n2)c1
[1]
  IC50: > 10 µM
  IC90: > 10 µM

## N#C/C(=C\Nc1ncccn1)S(=O)(=O)c1ccccc1Cl
FFLUC_HILL_SLOPE 11.3, FFLUC_R_SQUARED 0.831, read-out: LUCIFERASE INFECTION ASSAY - IC50
  IC50: > 10.3 µM
  IC90: > 10.3 µM

## C=C(C)CSc1nc2cc(-c3ccc(C)cc3)sc2c(=O)n1Cc1ccccc1
FFLUC_HILL_SLOPE 3.73, FFLUC_R_SQUARED 0.533, read-out: LUCIFERASE INFECTION ASSAY - IC50
  IC50: > 10 µM
  IC90: > 10 µM

## CC(=O)c1ccc(NC(=O)Nc2ccc3nc(-c4cccc(F)c4)nn3c2)cc1
[1]
  IC50: 5.52 µM
  IC90: > 10 µM

## O=C(CCSCc1cc(Cl)c2c(c1)OCO2)Nc1ccc(Cl)cc1F
[1]
  IC50: > 10 µM
  IC90: > 10 µM

## COc1cc(CNC(=O)c2scnc2C)ccc1OC1CCCC1
[1]
  IC50: 2.89 µM
  IC90: > 10 µM

## CS(=O)(=O)c1ccc(-c2ccc3ncc(-c4cccc(C(F)(F)F)c4)n3n2)cc1
[1]
  IC50: 2.78 µM
  IC90: > 10 µM

## COc1ccc(-c2csc(NC(=O)CN3CCN(c4ncnc5c4cnn5C)CC3)n2)cc1
HEPG2TOX_HILL_SLOPE 1.28, 1.59, HEPG2TOX_R_SQUARED 0.849, 0.471, PBLUC_HILL_SLOPE 15.7, 12.8, PBLUC_R_SQUARED 0.495, 0.575, read-out: LUCIFERASE INFECTION ASSAY - IC50
  IC50: 3.31 µM
  IC90: 3.88 µM

## COc1ccc(/C=C2\Oc3c(CN(C)C)c(O)cc(C)c3C2=O)cc1
[1]
  IC50: > 9.72 µM
  IC90: > 9.72 µM
